Source: article PMC5738443, “Peptide aptamer-modified single-walled carbon nanotube-based transistors for high-performance biosensors” (Scientific Reports, 2017)
Residues, ends and D or L forms follow the SMILES beside them.

Key:
Cathepsin E (CatE) [1] = biological target: T1, Cathepsin E (CatE) (Homo sapiens, UniProt P14091); assay: SPR analysis (Biacore X100) of peptide aptamer binding to Cathepsin E; details: Biacore X100, CM5 chip, aptamer immobilized via C-terminal biotin-streptavidin, 1000 RU; single-cycle, CatE 858.37-1.37 ng/mL; steady-state affinity; read-out: dissociation constant (Kd)
T1 construct: purchased BioVision, Inc. (CA, USA)
T1 sequence (P14091 54-396): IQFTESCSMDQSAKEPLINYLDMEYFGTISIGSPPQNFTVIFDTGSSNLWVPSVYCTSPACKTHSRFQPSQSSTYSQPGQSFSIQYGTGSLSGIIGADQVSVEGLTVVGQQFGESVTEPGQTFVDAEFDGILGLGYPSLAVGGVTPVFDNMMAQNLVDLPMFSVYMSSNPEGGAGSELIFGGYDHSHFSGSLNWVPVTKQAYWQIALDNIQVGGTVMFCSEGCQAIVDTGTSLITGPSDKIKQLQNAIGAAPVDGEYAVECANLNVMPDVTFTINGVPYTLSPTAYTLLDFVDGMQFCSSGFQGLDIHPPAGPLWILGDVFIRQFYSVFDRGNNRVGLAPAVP
Description: CatE is composed of an in vitro-selected peptide aptamer (24 amino acids comprising two peptide blocks of 12- and 8-amino acids paired by a 4-amino acid linker) and a short alpha-strand peptide scaffold (7-amino acids). A Biacore X100 instrument was used to characterize the binding features of the peptide aptamer to CatE. A free N-terminal end of the peptide aptamer is necessary for its correct folding as a basis for the formation of the binding complex with the target. Therefore, the C-terminal end of the peptide aptamer with biotin-streptavidin chemistry was immobilized onto a CM5 sensor chip, and then CatE was injected as the analyte across this surface for interaction with the peptide aptamer. […] The dissociation constant (Kd) for the CatE was calculated as 0.954 ± 0.067 nM.
Figure 3 Peptide aptamer characterization. […] The data for the steady-state affinity binding plot were calculated from the end of the association phases against the analyte concentration. […]
A novel peptide aptamer that specifically recognizes CatE was engineered via systemic in vitro evolution. […] A steady-state affinity binding plot was calculated from the end of the association phases against the analyte concentration.

Cathepsin E (CatE) [2] = biological target: T1, Cathepsin E (CatE); assay: CatE detection in PBS with peptide aptamer-modified liquid-gated SWCNT FET; type: binding; details: aptamer on SWCNT FET via PBASE; CatE 0.1 to 1 ng/mL in 1× PBS pH 10, 10 min, 25 °C; measured in 0.0005× PBS pH 4, -0.6 V; read-out: Kd (Langmuir isotherm fit of FET response)
Description: The peptide aptamer was immobilized onto the SWCNT channel via the PBASE linker prior to the capture of CatE. Next, the sensor was exposed to 0.0005× PBS pH 4 for electrical measurements. […] The transfer curve of the SWCNT FET initially shifted toward the negative bias direction after the immobilization of the peptide aptamer. With increasing CatE concentrations from 0.1 to 0.6 ng/mL, the curve further shifted toward the same direction. This phenomenon is attributed to the positively charged CatE molecules at PBS pH 4 (the isoelectric point of CatE is 4.69) inducing the gradual reduction of hole carriers in the SWCNT channel via a field effect. At concentrations greater than this concentration, the shift of the transfer curve is no longer observed because all peptide aptamer probe molecules are occupied by CatE molecules. The relative decrease in the “on” current (∆I/∆Imax), where ∆Imax represents the decrease in “on” current at a saturation level due to the interaction between CatE and peptide aptamer-modified SWCNT FETs, at a top liquid-gated voltage of −0.6 V was plotted as a function of CatE concentration, as shown in Fig. 5b. […]
We measured the transfer characteristics of the fabricated sensor using a top liquid-gated scheme in 0.0005× PBS pH 4. […]

## CC[C@H](C)[C@H](NC(=O)CNC(=O)CNC(=O)[C@H](CS)NC(=O)[C@@H](N)CO)C(=O)N[C@H](C(=O)N[C@H](C(=O)N[C@H](C(=O)N[C@@H](CO)C(=O)N[C@@H](CS)C(=O)N[C@H](C(=O)N[C@@H](C)C(=O)N[C@H](C(=O)N[C@H](C(=O)N[C@@H](CO)C(=O)N[C@@H](CC(C)C)C(=O)N[C@H](C(=O)N1CCC[C@H]1C(=O)NCC(=O)N[C@@H](CCCNC(=N)N)C(=O)N[C@H](C(=O)NCC(=O)N[C@@H](CS)C(=O)N[C@H](C(=O)N[C@@H](CCCNC(=N)N)C(=O)N[C@@H](C)C(=O)N[C@@H](CCCCN)C(=O)N[C@@H](C)C(=O)N[C@@H](C)C(=O)N[C@@H](C)C(=O)N[C@@H](CCCCN)C(=O)O)[C@@H](C)CC)[C@@H](C)CC)[C@@H](C)CC)[C@@H](C)CC)C(C)C)[C@@H](C)CC)[C@@H](C)CC)[C@@H](C)CC)[C@@H](C)CC [peptide aptamer] (H-SCGGIIIISCIAVISLIPGRIGCIRAKAAAK-OH)
Cathepsin E (CatE) [1]
  Kd: 0.954 nM
Cathepsin E (CatE) [2]
  Kd: 0.00277 nM
